Tests used:
Type in all cases: in vivo, BALB/c mouse
[1] = tested on: mice treated with carboplatin; assay: Example 1: dose response of PEGylated TPO Compound No. 1 given one day after carboplatin, anemia in mice
Method: (§1) The effects of PEGylated TPO Compound No. 1 on mice treated with carboplatin were observed. For all examples herein, a 10 mg/ml stock solution of PEGylated TPO Compound No. 1 was prepared in sterile saline. For mixing, the preparation was placed on a gyratory shaker for 15min. at 200 rpm. This method was used to dissolve PEGylated TPO Compound No. 1 without foaming. The stock was filtered using a GV Millex (0.22um) filter. Dosing solutions were then prepared from this stock using sterile saline. The stock and dosing solutions were prepared fresh on the day of use.
The effect of PEGylated TPO Compound No. 1 on the duration and severity of anemia following treatment of mice with carboplatin as determined by changes in hemoglobin levels, red blood cell count and hematocrit, was observed. For this study, increasing amounts of PEGylated TPO Compound No. 1 were administered to mice one day following a carboplatin dose to characterize a possible dose-dependent effect on various red blood cell parameters.
The groups of mice were treated with either carboplatin or vehicle (Phosphate Buffered Saline, PBS) by intraperitoneal administration on Days -2 and -1 as delineated below. The optimal dose of carboplatin used to induce thrombocytopenia in the BALB/c mouse strain was previously determined to be a fractionated total dose of 120mg/kg given as two consecutive daily injections (i.e., 2x60mg/kg). One day following the second dose of carboplatin, groups of mice were treated with PEGylated TPO Compound No. 1 or vehicle (sterile saline, SS, preservative-free 0.9% sodium chloride) by IV (bolus) injection as delineated in Table 1. The dose was administered on a per-weight basis (100ul/10g body weight).
On Days 5, 7, 9 and 11, five mice in each test group were weighed and then euthanised using CO2-asphyxiation and exsanguinations via cardiac puncture. The blood samples were transferred to separate EDTA (lavender-top) microcontainers for hematologic evaluation. Groups of control mice (5) were processed on Days 5 and 11. The data are presented graphically as group means +SEM.

[2] = tested on: mice treated with carboplatin; assay: Example 2: dosing seven days before and/or 1 hour after carboplatin, hematological parameters in mice
Method: as §1
The possibility that PEGylated TPO Compound No. 1 may sensitize bone marrow hematopoietic stem cells of mice to the toxic effects of carboplatin treatment was examined. For this study, a dose of PEGylated TPO Compound No. 1 was administered to the mice seven days prior to the carboplatin dose or immediately after carboplatin treatment. An additional group was treated with PEGylated TPO Compound No. 1 both prior to and after carboplatin administration. The effect of these dosing regimens on hematological parameters was also observed.
The groups of mice were treated with either carboplatin or vehicle (Phosphate Buffered Saline, PBS) by ip administration on Days 7 and 8 as delineated below. The optimal dose of carboplatin used to induce thrombocytopenia in the BALB/c mouse strain was previously determined to be a fractionated total dose of 120mg/kg given as two consecutive daily injections (i.e., 2x60mg/kg). Seven days prior to the first carboplatin dose or one (1) hour after the second dose of carboplatin, groups of mice were treated with PEGylated TPO Compound No. 1 (300ug/kg) or vehicle (sterile saline, SS, preservative-free 0.9% sodium chloride) by IV (bolus) injection as delineated in Table 2. An additional group was treated with PEGylated TPO Compound No. 1 both before (Day 0) and after (Day 8, t=1h) the carboplatin dose. All dosing was performed on a per-weight basis (100ul/10g body weight).
(§2) On Days 14, 18, 22 and 26, five mice in each test group were weighed and then euthanised using CO2-asphyxiation and exsanguination via cardiac puncture. The blood samples were transferred to separate EDTA (lavender-top) microcontainers for hematological evaluation. Groups of control mice (5) were processed on Days 14 and 26. The data are presented graphically as group means + SEM.

[3] = tested on: mice treated with carboplatin; assay: Example 3: dosing 1 hour, 1 day or 4 days after carboplatin, anemia in mice
Method: as §1
The effect of PEGylated TPO Compound No. 1 on the duration and severity of anemia following dosing regimens in which PEGylated TPO Compound No. 1 is administered at various times following the carboplatin treatment was observed. For this study, an amount of PEGylated TPO Compound No. 1 was administered to mice, one (1) hour, one (1) day or four (4) days following a carboplatin dose.
The groups of mice were treated with either carboplatin or vehicle (Phosphate Buffered Saline, PBS) by ip administration on Days -1 and 0 as delineated below. The optimal dose of carboplatin used to induce thrombocytopenia in the BALB/c mouse strain was previously determined to be a fractionated total dose of 120mg/kg given as two consecutive daily injections (i.e., 2x60mg/kg). One hour (Day 0), one day (Day 1) or four days (Day 4) following the second dose of carboplatin, groups of mice were treated with PEGylated TPO Compound No. 1 (300ug/kg) or vehicle (sterile saline, SS, preservative-free 0.9% sodium chloride) by IV (bolus) injection as delineated in Table 3. The dose was administered on a per-weight basis (100ul/10g body weight).
as §2, with “6, 8, 10 & 12,” for “14, 18, 22 and 26,”, “exsanguinations” for “exsanguination”, “6 & 12.” for “14 and 26.”

## Methoxypolyethyleneglycol20000-propionyl-L-Isoleucyl-L-Glutamyl-Glycyl-L-Prolyl-L-Threonyl-L-Leucyl-L-Arginyl-L-Glutaminyl-L-2-Naphthylalanyl-L-Leucyl-L-Alanyl-L-Alanyl-L-Arginyl-Sarcosyl-Ne-(methoxypolyethyleneglycol20000-propionyl-L-Isoleucyl-L-Glutamyl-Glycyl-L-Prolyl-L-Threonyl-L-Leucyl-L-Arginyl-L-Glutaminyl-L-2-Naphthylalanyl-L-Leucyl-L-Alanyl-L-Alanyl-L-Arginyl-Sarcosyl-)-Lysinamide [PEGylated TPO Compound No. 1]
[1]; all doses tested, 11-Day study period
  recovery of the lost body weight: enhanced the recovery of the lost body weight
[1]; appeared to be dose-dependent
  altered appearance and behavior (hunched, flaccid, soiled anogenital areas): decreased the onset, frequency and severity of these signs
[1]; carboplatin 2x60mg/kg ip Days -2 & -1, all doses (300, 1000, 3000ug/kg iv Day 0), by Day 11
  decrease in hemoglobin levels caused by carboplatin: inhibited
[1]; carboplatin 2x60mg/kg ip, 300-3000ug/kg iv Day 0, no statistical evaluation
  decreases in RBC count and hematocrit associated with carboplatin treatment: inhibited
[2]; 300ug/kg iv on Day 0 (only), seven days prior to carboplatin
  carboplatin-induced changes in erythrocyte parameters: failed to affect
[2]; 300ug/kg iv on Day 8 (1 hour after the second carboplatin treatment) only
  decreases in hemoglobin levels, RBC counts and hematocrits caused by carboplatin: prevented
[2]; 300ug/kg iv on Day 8 with an additional dose on Day 0
  decreases in hemoglobin levels, RBC counts and hematocrits caused by carboplatin: prevented
[2]; co-treatment, all regimens, no statistical analysis
  body weight loss between Days 7 and 26: prevented this weight loss
[2]; treatment on Day 8 without or with additional treatment on Day 0
  onset of signs (hunching, unkempt): appeared to delay the onset of these signs
[2]; treatment on Days 0 and 8
  severity and duration of signs (hunching, unkempt): decreased the severity and duration
[3]; 300ug/kg iv
  time of dosing after chemotherapy at which prevention of carboplatin-induced anemia is observed: ≤ 24 h
[3]; 300ug/kg iv on Day 0 (1 hour after carboplatin treatment)
  decreases in hemoglobin levels, RBC counts and hematocrits caused by carboplatin: prevented
[3]; 300ug/kg iv on Day 1
  decreases in hemoglobin levels, RBC counts and hematocrits caused by carboplatin: prevented
[3]; 300ug/kg iv on Day 4
  carboplatin-induced changes in erythrocyte parameters: failed to affect
[3]; 300ug/kg iv, no detailed analysis
  onset, frequency or severity of signs (hunched, flaccid): did not appear to have a dramatic effect
[3]; administration on Day 0, Day 1 or Day 4, no statistical analysis
  weight loss associated with carboplatin treatment: did not appear to affect the weight loss
